From US6723716B1, “7-acylamino-3-heteroarylthio-3-cephem carboxylic acid antibiotics and prodrugs thereof” (Essential Therapeutics, Inc., priority 1999, dated 2004)
In brackets after ≈: the same amount, converted by molar mass.

Experiments:
[1] = tested on: S. haemolyticus 05 (Meth^R); assay: Broth microdilution MIC (NCCLS); type: cell-based; conditions: Staphylococcus haemolyticus
Description: (§1) Compounds were evaluated for antimicrobial activity against a panel of bacterial strains using a broth microdilution assay performed as recommended by the NCCLS (1). The minimum inhibitory concentration (MIC) was defined as the lowest concentration of drug which prevented the growth of the bacteria.
(§2) For this primary panel, the assay was performed in Mueller-Hinton Broth (MHB) with a final bacterial inoculum of 5×10^5 CFU/mL (from an early-log phase culture) and a final volume of 100 μL. Control drugs, including imipenem, vancomycin, Penicillin G, dicloxacillin (vs. MSSA ATCC29213 only), and new compounds were prepared at a concentration equivalent to 2-fold the desired final concentration. Dilution of compounds were prepared directly in the plates by serial 2-fold dilution using a multichannel pipette. Positive and negative growth control were included in each plate.
(§3) The bacterial inocula were prepared as follows. For each strain one isolated colony was used to inoculate a volume of 8 mL of Mueller-Hinton broth and these cultures were incubated overnight (20 h) at 35° C. in a shaking incubator. At the exception of Enterococcus strains, culture were then diluted 1:10 and allowed to grow for an additional one hour at 35° C. in a shaking incubator. The inocula were prepared by diluting the early log-phase (1 h) cultures 1:1000 with fresh Mueller-Hinton broth. E. faecium and E. faecalis were prepared by diluting overnight cultures 1:333 and 1:666, respectively, with fresh Mueller-Hinton broth. A volume of 50 μL of the inocula was added to each well. […] The exact inocula were determined by applying 10 μL of 10-fold serial dilution of the bacterial suspensions on TSA. After overnight incubation at 35° C., colony forming units were manually counted.
(§4) Microtiter plates were incubated during 24 h at 35° C. and were read using a microtiterplate reader (Molecular Devices) at 650 nm as well as by visual observation using a microtiterplate reading mirror.

[2] = tested on: E. faecium ATCC 35667; assay: Broth microdilution MIC (NCCLS); type: cell-based; conditions: Enterococcus faecium, ATCC35667
Description: as §1, §2, §3, §4

[3] = tested on: E. faecalis ATCC 29212; assay: Broth microdilution MIC (NCCLS); type: cell-based; conditions: Enterococcus faecalis, ATCC29212
Description: as §1, §2, §3, §4

[4] = tested on: E. faecium VanA (Van^R); assay: Broth microdilution MIC (NCCLS); type: cell-based; conditions: Enterococcus faecium
Description: as §1, §2, §3, §4

[5] = tested on: S. aureus ATCC 33593 (Meth^R); assay: Broth microdilution MIC (NCCLS); type: cell-based; conditions: Staphylococcus aureus, ATCC33593
Description: as §1, §2, §3, §4

[6] = tested on: S. aureus ATCC 29213; assay: Broth microdilution MIC (NCCLS); type: cell-based; conditions: Staphylococcus aureus, ATCC29213; S. aureus ATCC 29213; Mueller-Hinton broth, 24 h at 35° C.; read-out: MIC
Description: as §1, §2, §3, §4

[7] = tested on: S. aureus ATCC 13709 (Meth^S); assay: Broth microdilution MIC (NCCLS); type: cell-based; conditions: Staphylococcus aureus, ATCC13709, S. aureus ATCC 13709 (Meth^S); read-out: MIC
Description: as §1, §2, §3, §4

[8] = tested on: S. aureus 76 (Meth^R)(lac^+); assay: Broth microdilution MIC (NCCLS); type: cell-based; conditions: Staphylococcus aureus
Description: as §1, §2, §3, §4

[9] = tested on: S. aureus Spain #356 (Meth^R); assay: Broth microdilution MIC (NCCLS); type: cell-based; conditions: Staphylococcus aureus, 24 h
Description: as §1, §2, §3, §4

[10] = tested on: S. aureus Col (Meth^R)(lac^−); assay: Broth microdilution MIC (NCCLS); type: cell-based; conditions: Staphylococcus aureus
Description: as §1, §2, §3, §4

[11] = tested on: E. faecalis VanB (Van^R); assay: Broth microdilution MIC (NCCLS); type: cell-based; conditions: Enterococcus faecalis
Description: as §1, §2, §3, §4

[12] = tested on: P. aeruginosa ATCC 27853; assay: Broth microdilution MIC (NCCLS); type: cell-based; conditions: Pseudomonas aeruginosa, ATCC27853
Description: as §1, §2, §3, §4

[13] = tested on: E. coli ATCC25992; assay: Broth microdilution MIC (NCCLS); type: cell-based; conditions: Escherichia coli
Description: as §1, §2, §3, §4

[14] = tested on: E. faecium A491 (Amp^R); assay: Broth microdilution MIC (NCCLS); type: cell-based; conditions: Enterococcus faecium
Description: as §1, §2, §3, §4

[15] = tested on: S. aureus PC1 (Meth^S)(lac^+); assay: Broth microdilution MIC (NCCLS); type: cell-based; conditions: Staphylococcus aureus
Description: as §1, §2, §3, §4

[16] = tested on: S. aureus ATCC29213; assay: Human serum binding effect: MIC with and without human serum; type: cell-based, Staphylococcus aureus; conditions: 1:1 human serum:MHB
Description: The approximate measurement of the degree of binding of the compound to human serum proteins can be achieved by determination of the effect of the addition of human serum to the medium in which the MIC values against a selected bacterial strain is determined. The ratio of the MIC value obtained in presence of added human serum to the MIC value determined without serum addition was used as a measure of serum binding and the results of such determination are presented below in Table 2.
In addition to the standard MIC determination described above, the staphylococcal strain ATCC29213 is also tested in a ratio 1:1, human serum:MHB to obtain a preliminary estimate of the bioactivity of test compounds in serum: The assay was performed in Human Serum and Mueller-Hinton Broth (HSMHB) with a final bacterial inoculum of 1×10^6 CFU/mL (from an early-log phase culture) and a final volume of 100 μL. Control drugs, including imipenem, vancomycin, dicloxacillin, and new compounds were prepared in double-concentrated Mueller-Hinton broth at a concentration equivalent to 4-fold the desired final concentration. Dilution of compounds were prepared directly in the plates by serial 2-fold dilution in double-concentrated Mueller-Hinton using a multichannel pipette. Positive and negative growth controls were included in each plate. […] The inoculum was prepared by diluting the early log-phase (1 h) culture 1:100 with fresh double-concentrated Mueller-Hinton broth. A volume of 25 μL of the inoculum was added to each well. […] The exact inoculum was determined by applying 10 μl of 10-fold serial dilution of the bacterial suspension on TSA. After overnight incubation at 35° C., colony forming units were manually counted.

[17] = In vitro stability of compounds in rat serum; type: in vitro ADME; conditions: Table 2 data
Description: In general, compounds from the class of 7-acylamino-3-heteroarylthio-3-cephem carboxylic acids have higher chemical reactivity and lower stability towards chemical or enzymatic decomposition than most typical cephalosporins. […] Results shown in Table 2 represent percentage loss of the initial amount of cephalosporin compound upon 60 min incubation in rat serum.
Procedure for measuring degree of degradation of cephalosporin compounds in rat serum was as follows:
Fresh control rat serum (heparinized and stored frozen) is preincubated at 37° C. for 15 min in a shaking water bath. pH is measured using test strips. 25 μL of a 2 mg/mL solution cephalosporin compound (in water) of is then added to each matrix to make 1000 μL. Solutions were incubated at 37° C. 100 ul of solution was taken out at time=0, 15, 30, and 60 min post dose and added 200 μL 4% trichloroacetic acid, vortexed, and centrifuged for 10 min at 14,000 rpm in an Eppendorf microcentrifuge. 25 μL of each supernatant was injected onto HPLC. Experiment was repeated using 25 μL of a 0.2 mg/mL cephalosporin compound. Degradation is measured as the percentage of HPLC peak area at time t relative to peak area at time 0.
HPLC conditions: Beckman Ultrasphere C18 column. 5 u. 4.6 mm×25 cm. 1 mL/min of 95% 0.1 M ammonium acetate, pH 6, 5% ACN going to 75% buffer/organic over 20 min. UV monitored at 254 and 280 nm.

| SMILES | MIC [1] [µg/mL] | MIC [2] [µg/mL] | MIC [3] [µg/mL] | MIC [4] [µg/mL] | MIC [5] [µg/mL] | MIC [6] [µg/mL] | MIC [7] [µg/mL] | MIC [8] [µg/mL] | MIC [9] [µg/mL] | MIC [10] [µg/mL] | MIC [11] [µg/mL] | MIC [12] [µg/mL] | MIC [13] [µg/mL] | MIC [14] [µg/mL] | MIC [15] [µg/mL] | Human serum binding effect (ratio of MIC value determined with and without human serum added) [16] | stability of compounds in rat serum [17] |
| --- | --- | --- | --- | --- | --- | --- | --- | --- | --- | --- | --- | --- | --- | --- | --- | --- | --- |
| NCCSc1nccnc1SC1=C(C(=O)O)N2C(=O)C(NC(=O)/C(=N\O)c3cccc(N)n3)C2SC1 (stereo not shown) [Cmpd 7] | 2 (≈ 3.65 µM) | 8 (≈ 14.6 µM) | 2 (≈ 3.65 µM) | 8 (≈ 14.6 µM) | 2 (≈ 3.65 µM) | 0.25 (≈ 0.456 µM) | 0.25 (≈ 0.456 µM) | 2 (≈ 3.65 µM) | 2 (≈ 3.65 µM) | 2 (≈ 3.65 µM) | 4 (≈ 7.29 µM) | > 32 | 4 (≈ 7.29 µM) | > 32 | 0.25 (≈ 0.456 µM) |  |  |
| NCCSCc1ccncc1SC1=C(C(=O)O)N2C(=O)[C@@H](NC(=O)/C(=N\O)c3nsc(N)n3)[C@H]2SC1 [Cmpd 27, (7R)-7-[(Z)-2-(5-amino-1,2,4-thiadiazol-3-yl)-2-(hydroxyimino)acetamido]-3-[4-(2-aminoethylthiomethyl)pyrid-3-ylthio]-3-cephem-4-carboxylic acid] |  |  |  |  |  |  | 0.25 (≈ 0.44 µM) |  |  |  |  |  |  |  |  | 4 | improved stability |
| Cc1nc(CSCCN)c(SC2=C(C(=O)O)N3C(=O)[C@@H](NC(=O)/C(=N\O)c4cccc(N)n4)[C@H]3SC2)s1 [Cmpd 2, (7R)-7-[(Z)-2-(2-aminopyrid-6-yl)-2-(hydroxyimino)acetamido]-3-[4-(2-aminoethylthiomethyl)-2-methyl-1,3-thiazol-5-ylthio]-3-cephem-4-carboxylic acid] | 4 (≈ 6.88 µM) | 4 (≈ 6.88 µM) | 0.25 (≈ 0.43 µM) | 4 (≈ 6.88 µM) |  | 0.25 (≈ 0.43 µM) | 0.13 (≈ 0.223 µM) | 4 (≈ 6.88 µM) | 2 (≈ 3.44 µM) |  | 1 (≈ 1.72 µM) | > 32 | 32 (≈ 55 µM) |  | 0.25 (≈ 0.43 µM) | 4 |  |
